Data: patent publication US12662504B2, “High-solubility rebaudioside D complex” (SUNTORY HOLDINGS LIMITED, priority 2019, dated 2026)
Where two headings read alike, the source gives them in different places. Peptide text beside a SMILES is read from it.

What was measured:
[1] = Evaluation of melting/dissolution (Example A): melting of auxiliary raw material and dissolution of Reb. D in the melt
Method: The meltability of a raw material to be combined with Reb. D (hereinafter also referred to as “the auxiliary raw material”) and the solubility of Reb. D were evaluated, and the auxiliary raw material with which the complex of the present invention can be obtained was examined. As the auxiliary raw material, raw materials described in the table below were selected from food additives that can be added to beverages. The raw materials used for forming the complex are as follows: Reb. D formulation (purity: 95% (w/w), manufactured by Jining Renewal and Joint International); D-allulose (purity: 99%+), arabinose (purity: 98%+), fructose (purity: 99%+), glucose (purity: 99%+), maltose monohydrate (purity: 95%+), mannitol (purity: 99%+), mannose (purity: 98%+), rhamnose (purity: 98%+), ribose (purity: 98%+), sucrose (purity: 99%+), xylitol (purity: 98%+) and xylose (purity: 98%+), trehalose dihydrate (purity: 98%+), sodium pantothenate (purity: 98%+) (each manufactured by NACALAI TESQUE, INC.); and erythritol (purity: 98% (w/w), manufactured by Mitsubishi-Chemical Foods Corporation). Also in the subsequent working examples, the raw materials described above were used unless otherwise stated.
The auxiliary raw material described in Table 1 was mixed with 100 mg of Reb. D formulation (purity: 95% (w/w)) in a heat-resistant vial, the temperature was elevated to the melting point of the auxiliary raw material or higher, and it was confirmed whether or not the auxiliary raw material was melted. After melting of the auxiliary raw material and dissolution of the Reb. D formulation were visually confirmed, the mixture was rapidly cooled in ice and stored at 10° C. The weight of the auxiliary raw material was adjusted based on the amount that enables dissolution of Reb. D. The weight of D-allulose (another name: D-psicose) was 2,000 mg, the weight of L-glutamine was 1,000 mg, the weight of vitamin D3 was 1,144 mg, and the weight of an auxiliary raw material other than those was 4,000 mg. The case where it was recognized that the auxiliary raw material was melted and that Reb. D was dissolved (including the case where dissolution was visually recognized more when compared to the point of adding (complete dissolution is not required)) was evaluated as “O”, and the case where it was not recognized that the auxiliary raw material was melted even at a temperature equal to or higher than the melting point of the auxiliary raw material, or the case where it was not recognized that Reb. D was dissolved though the auxiliary raw material was successfully melted (after the addition, change in outer appearance was not visually recognized) was evaluated as “X”.

[2] = system: panelists trained about sensory attributes of sweeteners; test: Evaluation of flavor by trained panelists (Example Q); format: in vivo; details: 300 mg/L in terms of Reb. A or Reb. D; sucrose 9 SEV; 5 panelists; 0 to 6 points, sucrose control = 3
Method: In order to confirm effects of the three-component complex of erythritol/Reb. D/fructose, evaluation of flavor was made. Reb. A and Reb. D were also used, and sucrose was used as a control. Each of a two-component complex and a three-component complex was prepared as a solid according to the method of the working example so that about 3.6% of Reb. D was contained. Each of the complexes or Reb. A was subjected to adjustment by adding water thereto in a manner such that the amount in terms of Reb. A or Reb. D became 300 mg/L. The concentration of the sucrose solution was adjusted to be 9 SEV (sucrose equivalent value). Evaluation of taste quality was made by panelists trained about sensory attributes of sweeteners (5 members). The respective items of evaluation of flavor (on-set speed, lingering sweet aftertaste, bitterness intensity, lingering bitter aftertaste and comprehensive evaluation) were scored in a range of 0 to 6 points. As a reference, sucrose alone was used as a control (3 points). 6 points means high on-set speed of sweetness, short lingering sweet aftertaste, low bitterness intensity, short lingering bitter aftertaste and satisfactory overall evaluation.

[3] = format: physicochemical
Source text: In an embodiment of the present invention, the content of Reb. D in the complex is an amount equal to or less than the saturation solubility relative to the at least one compound selected from the carbohydrates and the water-soluble vitamins and the salts thereof. The saturation solubility means an amount (mg) with which Reb. D is no longer dissolved in a melt of 1 g of the at least one compound selected from the carbohydrates and the water-soluble vitamins and the salts thereof. The saturation solubility varies depending on the type of the compound and the temperature of the melt, but can be easily and accurately confirmed by actually forming a melt and dissolving Reb. D therein. For example, when forming a melt by using erythritol, 112 mg of Reb. D is dissolved in 1 g of erythritol at 190° C. (i.e., 112 mg/g).

[4] = times the sweetness of sugar / sucrose; cited from earlier work

SMILES: OC[C@H]1O[C@H](O[C@H]2[C@H](O)[C@@H](O)C(O)O[C@@H]2CO)[C@H](O)[C@@H](O)[C@@H]1O (mixture of isomers) [Maltose]
- Melting/dissolution [1]: ◯

SMILES: O=C(O)CC(O)C(=O)O (racemic) [DL-malic acid]
- Melting/dissolution [1]: ◯

SMILES: O=C[C@@H](O)[C@H](O)[C@H](O)CO [Arabinose]
- Melting/dissolution [1]: ◯

SMILES: O=C(CO)[C@H](O)[C@H](O)[C@H](O)CO [D-allulose]
- Melting/dissolution [1]: ◯

SMILES: OC[C@@H](O)[C@@H](O)CO [Erythritol]
- Melting/dissolution [1]: ◯

SMILES: O=C(CO)[C@@H](O)[C@H](O)[C@H](O)CO [Fructose]
- Melting/dissolution [1]: ◯

SMILES: NC(=O)CC[C@H](N)C(=O)O [L-glutamine]
- Melting/dissolution [1]: ◯

SMILES: OC[C@@H](O)[C@@H](O[C@H]1O[C@H](CO)[C@@H](O)[C@H](O)[C@H]1O)[C@H](O)[C@@H](O)CO [Maltitol]
- Melting/dissolution [1]: ◯

SMILES: OC[C@@H](O)[C@@H](O)[C@H](O)[C@H](O)CO [Mannitol]
- Melting/dissolution [1]: ◯

SMILES: C=C1C[C@@]23CC[C@H]4[C@@](C)(CCC[C@@]4(C)C(=O)O[C@@H]4O[C@H](CO)[C@@H](O)[C@H](O)[C@H]4O)[C@@H]2CC[C@]1(O[C@@H]1O[C@H](CO)[C@@H](O)[C@H](O[C@@H]2O[C@H](CO)[C@@H](O)[C@H](O)[C@H]2O)[C@H]1O[C@@H]1O[C@H](CO)[C@@H](O)[C@H](O)[C@H]1O)C3 [Reb. A, rebaudioside A]
- Bitterness intensity [2]: 2.10 points
- Comprehensive evaluation [2]: 1.70 points
- Lingering bitter aftertaste [2]: 1.70 points
- Lingering sweet aftertaste [2]: 1.70 points
- On-set speed [2]: 2.60 points

SMILES: C=C1C[C@@]23CC[C@H]4[C@@](C)(CCC[C@@]4(C)C(=O)O[C@@H]4OC(CO)[C@@H](O)C(O)C4O[C@@H]4OC(CO)[C@@H](O)C(O)C4O)[C@@H]2CC[C@]1(O[C@@H]1OC(CO)[C@@H](O)C(O[C@@H]2OC(CO)[C@@H](O)C(O)C2O)C1O[C@@H]1OC(CO)[C@@H](O)C(O)C1O)C3 (some centres unmarked) [Reb. D, rebaudioside D]
- saturation solubility of Reb. D in erythritol melt [3]: 112 mg/g
- Bitterness intensity [2]: 2.10 points
- Comprehensive evaluation [2]: 2.20 points
- Lingering bitter aftertaste [2]: 2.40 points
- Lingering sweet aftertaste [2]: 2.50 points
- On-set speed [2]: 2.40 points

SMILES: C[C@H](O)[C@H](O)[C@@H](O)[C@@H](O)C=O [Rhamnose]
- Melting/dissolution [1]: ◯

SMILES: O=C[C@H](O)[C@H](O)[C@H](O)CO [Ribose]
- Melting/dissolution [1]: ◯

SMILES: CC(C)(CO)[C@@H](O)C(=O)NCCC(=O)[O-].[Na+] [Sodium pantothenate]
- Melting/dissolution [1]: ◯

SMILES: OC[C@H]1O[C@@](CO)(O[C@H]2O[C@H](CO)[C@@H](O)[C@H](O)[C@H]2O)[C@@H](O)[C@@H]1O [Sucrose]
- Melting/dissolution [1]: ◯
- Bitterness intensity [2]: 3.00 points
- Comprehensive evaluation [2]: 3.00 points
- Lingering bitter aftertaste [2]: 3.00 points
- Lingering sweet aftertaste [2]: 3.00 points
- On-set speed [2]: 3.00 points

SMILES: C=C1CC[C@H](O)C/C1=C/C=C1\CCC[C@]2(C)[C@@H]([C@H](C)CCCC(C)C)CC[C@@H]12 [Vitamin D3]
- Melting/dissolution ([1]; auxiliary raw material mixed with 100 mg of Reb. D formulation, heated to melting point or higher, visual): ◯

SMILES: OC[C@@H](O)[C@H](O)[C@@H](O)CO [Xylitol]
- Melting/dissolution [1]: ◯

SMILES: O=C[C@H](O)[C@@H](O)[C@H](O)CO [Xylose]
- Melting/dissolution [1]: ◯

SMILES: CC1=CC(=O)NS(=O)(=O)O1 [acesulfame potassium]
- sweetness relative to sugar (sucrose) [4]: about 200 times

SMILES: COC(=O)[C@H](Cc1ccccc1)NC(=O)[C@@H](N)CC(=O)O [aspartame] (H-Asp-Phe-OMe)
- sweetness relative to sugar (sucrose) [4]: about 180 times

SMILES: OC[C@H]1O[C@H](O[C@]2(CCl)O[C@H](CCl)[C@@H](O)[C@@H]2O)[C@H](O)[C@@H](O)[C@H]1Cl [sucralose]
- sweetness relative to sugar (sucrose) [4]: about 600 times
